“And” between values parts separate entries of the source, which are not always exact repeats. Identical values can stand only once. Toxic doses and inconclusive results are not listed. How the source made its calls: active means survival T/C of 150% or more; inactive means T/C below 125% in these data.
Test system: P388 leukemia ip, CD2F1 mice, survival T/C
Assay: NCI In Vivo Anticancer Drug Screen. Data for tumor model P388 Leukemia (intraperitoneal) in CD2F1 (CDF1) mice
Conditions: endpoint: median survival time, higher = longer survival
Summary of the method: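 Mice carrying the transplanted tumor received test compound or vehicle. Survival was recorded in each group, and the value is the treated-group measurement divided by that of the vehicle-treated control group.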

[1] = dose: 100.0 mg/kg/injection, schedule: Q04DX003 (ip), vehicle: saline
[2] = dose: 200.0 mg/kg/injection, schedule: Q04DX003 (ip), vehicle: saline
[3] = dose: 400.0 mg/kg/injection, schedule: Q04DX003 (ip), vehicle: saline
[4] = dose: 12.5 mg/kg/injection, schedule: Q01DX009 (ip), vehicle: saline with Tween-80
[5] = dose: 25.0 mg/kg/injection, schedule: Q01DX009 (ip), vehicle: saline with Tween-80
[6] = dose: 50.0 mg/kg/injection, schedule: Q01DX009 (ip), vehicle: saline with Tween-80
[7] = dose: 50.0 mg/kg/injection, schedule: Q01DX009 (ip), vehicle: saline
[8] = dose: 100.0 mg/kg/injection, schedule: Q01DX009 (ip), vehicle: saline
[9] = dose: 200.0 mg/kg/injection, schedule: Q01DX009 (ip), vehicle: saline
[10] = dose: 50.0 mg/kg/injection, schedule: Q01DX009 (ip), vehicle: Klucel (hydroxypropylcellulose) (HPC)
[11] = dose: 100.0 mg/kg/injection, schedule: Q01DX009 (ip), vehicle: Klucel (hydroxypropylcellulose) (HPC)
[12] = dose: 200.0 mg/kg/injection, schedule: Q01DX009 (ip), vehicle: Klucel (hydroxypropylcellulose) (HPC)
[13] = dose: 100.0 mg/kg/injection, schedule: Q01DX009 (ip), vehicle: saline with Tween-80
[14] = dose: 200.0 mg/kg/injection, schedule: Q01DX009 (ip), vehicle: saline with Tween-80
[15] = dose: 50.0 mg/kg/injection, schedule: Q04DX003 (ip), vehicle: saline
[16] = dose: 25.0 mg/kg/injection, schedule: Q01DX005 (ip), vehicle: saline with Tween-80
[17] = dose: 100.0 mg/kg/injection, schedule: Q01DX001 (ip), vehicle: saline with Tween-80
[18] = dose: 200.0 mg/kg/injection, schedule: Q01DX001 (ip), vehicle: saline with Tween-80
[19] = dose: 400.0 mg/kg/injection, schedule: Q01DX001 (ip), vehicle: saline with Tween-80

Measured: T/C

CC(=O)CC(c1ccccc1)C(C(=O)O)c1ccccc1 (stereo not given)
inactive: [1] 93 % of control | [2] 100 % of control | [3] 100 % of control

CCOC(=O)N1Cc2cc3ccccc3nc2C1
inactive: dose: 6.25 mg/kg/injection, schedule: Q01DX009 (ip), vehicle: saline with Tween-80 107 % of control | [4] 101 % of control | [5] 101 % of control | [6] 108 % of control

CC1(C)COC2(c3ccccc3)N(c3ccccc3)C(=O)ON12 (stereo not given)
inactive: dose: 60.0 mg/kg/injection, schedule: Q01DX001 (ip), vehicle: Klucel (hydroxypropylcellulose) (HPC) 100 % of control | dose: 120.0 mg/kg/injection, schedule: Q01DX001 (ip), vehicle: Klucel (hydroxypropylcellulose) (HPC) 100 % of control | dose: 240.0 mg/kg/injection, schedule: Q01DX001 (ip), vehicle: Klucel (hydroxypropylcellulose) (HPC) 103 % of control

COc1ccc(CSC(=S)Nc2cccc(S(F)(F)(F)(F)F)c2)cc1
inactive: [4] 97 % of control | dose: 12.5 mg/kg/injection, schedule: Q01DX009 (ip), vehicle: saline 104 % of control | [5] 100 % of control | dose: 25.0 mg/kg/injection, schedule: Q01DX009 (ip), vehicle: saline 98 % of control | [6] 100 % of control | [7] 100 % of control and 119 % of control | [8] 116 % of control | [9] 118 % of control

CC1Cc2nc3ccccc3c(=O)n2O1 (stereo not given)
inactive: [10] 103 % of control | [11] 107 % of control | [12] 103 % of control

CNC(=S)NCOCCOC(C)=O
inactive: dose: 60.0 mg/kg/injection, schedule: Q01DX005 (ip), vehicle: saline 98 % of control | dose: 120.0 mg/kg/injection, schedule: Q01DX005 (ip), vehicle: saline 102 % of control | dose: 240.0 mg/kg/injection, schedule: Q01DX005 (ip), vehicle: saline 102 % of control

O=C(O)CCS/N=N/c1nc2nc[nH]c(=O)c2[nH]1
inactive: dose: 50.0 mg/kg/injection, schedule: Q01DX005 (ip), vehicle: Klucel (hydroxypropylcellulose) (HPC) 107 % of control | dose: 100.0 mg/kg/injection, schedule: Q01DX005 (ip), vehicle: Klucel (hydroxypropylcellulose) (HPC) 103 % of control | dose: 200.0 mg/kg/injection, schedule: Q01DX005 (ip), vehicle: Klucel (hydroxypropylcellulose) (HPC) 104 % of control

CCOC(=O)C(CCC(OCC)OCC)C(=O)OCC
inactive: [7] 103 % of control | [8] 102 % of control | [9] 101 % of control

COC(=O)c1cc(CC[N+](C)(C)Cc2ccccc2)c2ccccn12
inactive: dose: 6.25 mg/kg/injection, schedule: Q04DX002 (ip), vehicle: saline 104 % of control | dose: 12.5 mg/kg/injection, schedule: Q04DX002 (ip), vehicle: saline 96 % of control | dose: 25.0 mg/kg/injection, schedule: Q04DX002 (ip), vehicle: saline 106 % of control

CCCCC(=O)C(=O)c1ccc(O)c(C)c1O
inactive: [6] 96 % of control | [13] 93 % of control | [14] 96 % of control

C=C1C(=O)OC2C1C(OC(=O)/C(C)=C/C)CC1(COC(O)C1)C2C(=C)C (stereo not given)
inactive: dose: 2.5 mg/kg/injection, schedule: Q01DX009 (ip), vehicle: saline + alcohol 107 % of control | dose: 5.0 mg/kg/injection, schedule: Q01DX009 (ip), vehicle: saline + alcohol 118 % of control | dose: 10.0 mg/kg/injection, schedule: Q01DX009 (ip), vehicle: saline + alcohol 109 % of control | dose: 20.0 mg/kg/injection, schedule: Q01DX009 (ip), vehicle: saline + alcohol 100 % of control

COC1C(c2cc3ccccc3oc2=O)OC2OC(C)(C)OC21 (stereo not given)
inactive: dose: 5.0 mg/kg/injection, schedule: Q01DX001 (ip), vehicle: Klucel (hydroxypropylcellulose) (HPC) 97 % of control | dose: 10.0 mg/kg/injection, schedule: Q01DX001 (ip), vehicle: Klucel (hydroxypropylcellulose) (HPC) 101 % of control | dose: 20.0 mg/kg/injection, schedule: Q01DX001 (ip), vehicle: Klucel (hydroxypropylcellulose) (HPC) 100 % of control

Clc1cc2nsnc2cc1Cl
inactive: [15] 100 % of control | [1] 94 % of control | [2] 104 % of control | [3] 101 % of control

NC1C(=O)OC(C(O)CO)C1O (stereo not given)
inactive: dose: 12.5 mg/kg/injection, schedule: Q01DX009 (ip), vehicle: water 100 % of control | dose: 25.0 mg/kg/injection, schedule: Q01DX009 (ip), vehicle: water 100 % of control | dose: 50.0 mg/kg/injection, schedule: Q01DX009 (ip), vehicle: water 104 % of control | dose: 100.0 mg/kg/injection, schedule: Q01DX009 (ip), vehicle: water 98 % of control | dose: 200.0 mg/kg/injection, schedule: Q01DX009 (ip), vehicle: water 97 % of control

O=C(NC(=NC(=Nc1ccc([N+](=O)[O-])cc1)c1ccccc1)c1ccccc1)c1ccccc1
inactive: [6] 93 % of control | [13] 99 % of control | [14] 90 % of control

CC1(C)OOC(C)(O)C1Br (stereo not given)
inactive: [15] 95 % of control | [1] 103 % of control | [2] 95 % of control

O=C(CNC(=O)Nc1ccc(Cl)c(Cl)c1)N/N=C/c1ccccc1F
inactive: dose: 3.75 mg/kg/injection, schedule: Q01DX005 (ip), vehicle: saline with Tween-80 104 % of control | dose: 7.5 mg/kg/injection, schedule: Q01DX005 (ip), vehicle: saline with Tween-80 102 % of control | dose: 15.0 mg/kg/injection, schedule: Q01DX005 (ip), vehicle: saline with Tween-80 102 % of control and 93 % of control | dose: 60.0 mg/kg/injection, schedule: Q01DX005 (ip), vehicle: saline with Tween-80 95 % of control

Nc1ccc2ccc(NS(=O)(=O)N3CCCCC3)cc2c1
inactive: [16] 108 % of control

COc1ccc(NCC(=O)O)c([N+](=O)[O-])c1
inactive: [17] 100 % of control | [18] 109 % of control | [19] 109 % of control

CCCCCCCCCCC(=O)C(=O)c1ccc(O)c(C)c1O
inactive: [10] 100 % of control | [11] 99 % of control | [12] 110 % of control

NCCOc1c2occc2cc2ccc(=O)oc12
inactive: dose: 100.0 mg/kg/injection, schedule: Q01DX001 (ip), vehicle: saline 110 % of control

CCOC(=O)c1cc(-c2ccccc2)c(=O)c(OC)nc1-c1ccccc1
inactive: [16] 108 % of control | dose: 50.0 mg/kg/injection, schedule: Q01DX005 (ip), vehicle: saline with Tween-80 118 % of control

COC(=O)[C@H]1[C@H]2C[C@@H]3c4[nH]c5ccccc5c4CCN3C[C@H]2C[C@@H](OC(=O)c2cc(OC)c(OC)c(OC)c2)[C@@H]1OC
inactive: dose: 3.13 mg/kg/injection, schedule: Q01DX005 (ip), vehicle: saline with Tween-80 105 % of control and 123 % of control | dose: 6.25 mg/kg/injection, schedule: Q01DX005 (ip), vehicle: saline with Tween-80 118 % of control (2×) and 124 % of control | dose: 12.5 mg/kg/injection, schedule: Q01DX005 (ip), vehicle: saline with Tween-80 114 % of control and 118 % of control and 124 % of control | [16] 111 % of control and 94 % of control and 97 % of control

N#Cc1c(Cl)nsc1-c1ccc([N+](=O)[O-])cc1
inactive: [10] 119 % of control | [11] 92 % of control | [12] 103 % of control

Cc1ccc(C2=C/C(=C/c3ccc(N(CCC#N)CCC#N)cc3)C(=O)O2)c(C)c1
inactive: [17] 95 % of control | [18] 95 % of control | [19] 87 % of control

Cc1ccc(CC(=O)O)c2c1C(=O)CC2
inactive: dose: 12.5 mg/kg/injection, schedule: Q01DX009 (ip), vehicle: distilled water + Tween-80 92 % of control | dose: 25.0 mg/kg/injection, schedule: Q01DX009 (ip), vehicle: distilled water + Tween-80 90 % of control | dose: 50.0 mg/kg/injection, schedule: Q01DX009 (ip), vehicle: distilled water + Tween-80 90 % of control | dose: 100.0 mg/kg/injection, schedule: Q01DX009 (ip), vehicle: distilled water + Tween-80 90 % of control | dose: 200.0 mg/kg/injection, schedule: Q01DX009 (ip), vehicle: distilled water + Tween-80 90 % of control

Cc1ccc(S(=O)(=O)NC(C)(COS(=O)(=O)c2ccc(C)cc2)COS(=O)(=O)c2ccc(C)cc2)cc1
inactive: [10] 95 % of control | [11] 96 % of control | [12] 96 % of control

Source: PubChem BioAssay AID330 (DTP/NCI, 2004)
